Source: ChEMBL document CHEMBL5154848, “Synthesis of heterocyclic ring-fused analogs of HMG499 as novel degraders of HMG-CoA reductase that lower cholesterol” (Eur J Med Chem, 2022)
Active and inactive are the calls of the source. The rule behind the calls is not given here.

Tests used:
[1] = Downregulation of lovastatin-induced HMGCR expression in CHO-K1 cells assessed as fold change in HMGCR expression at 10 uM incubated for 16 hrs by immunoblot analysis (reference value: 15.2); type: functional, Cricetulus griseus
[2] = Downregulation of HMGCR expression in CHO-K1 cells assessed as fold change in HMGCR expression at 10 uM incubated for 16 hrs by immunoblot analysis (reference value: 1.0); type: functional, Cricetulus griseus
CHO-K1 = experiment: Downregulation of lovastatin-induced HMGCR expression in CHO-K1 cells incubated for 16 hrs by immunoblot analysis; type: functional, cell-based; settings: Cricetulus griseus, dose 1-10 µM, DDE = dose-dependent effect
[3] = target: T1, 3-hydroxy-3-methylglutaryl-coenzyme A reductase (Cricetulus griseus) (UniProt P00347); experiment: Induction of degradation of wild type HMGCR in CHO-K1 cells by immunoblot analysis; type: cell-based; settings: DDE = dose-dependent effect
T1 sequence (whole entry): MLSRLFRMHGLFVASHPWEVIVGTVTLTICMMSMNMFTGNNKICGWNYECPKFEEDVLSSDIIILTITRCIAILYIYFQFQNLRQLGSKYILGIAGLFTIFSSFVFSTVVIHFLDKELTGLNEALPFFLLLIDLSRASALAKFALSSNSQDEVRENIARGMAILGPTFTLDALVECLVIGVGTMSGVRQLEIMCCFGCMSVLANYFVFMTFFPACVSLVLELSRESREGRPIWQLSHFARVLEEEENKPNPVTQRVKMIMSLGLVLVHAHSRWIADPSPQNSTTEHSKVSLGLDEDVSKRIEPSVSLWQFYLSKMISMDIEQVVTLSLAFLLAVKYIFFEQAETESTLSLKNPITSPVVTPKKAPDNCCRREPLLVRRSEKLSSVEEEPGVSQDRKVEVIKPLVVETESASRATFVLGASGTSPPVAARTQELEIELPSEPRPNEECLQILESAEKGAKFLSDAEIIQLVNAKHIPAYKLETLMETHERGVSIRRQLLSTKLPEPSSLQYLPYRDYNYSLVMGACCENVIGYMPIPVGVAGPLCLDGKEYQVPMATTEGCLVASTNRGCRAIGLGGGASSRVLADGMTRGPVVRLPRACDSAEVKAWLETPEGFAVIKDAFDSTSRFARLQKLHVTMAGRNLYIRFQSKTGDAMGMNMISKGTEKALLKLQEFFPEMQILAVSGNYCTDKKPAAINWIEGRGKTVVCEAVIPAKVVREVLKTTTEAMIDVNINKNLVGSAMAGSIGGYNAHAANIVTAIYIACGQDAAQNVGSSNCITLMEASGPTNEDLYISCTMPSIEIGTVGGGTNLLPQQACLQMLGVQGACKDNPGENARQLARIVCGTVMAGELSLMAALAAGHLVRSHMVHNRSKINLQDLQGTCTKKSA

CHO-7 = experiment: Growth inhibition of CHO-7 cells at 0.3 to 10 uM cultured for 7 days in sterol depleted medium in the absence of cholesterol and measured on day 8 by crystal violet staining based microscopic analysis; type: functional, cell-based; settings: Cricetulus griseus, dose 0.3-10 µM, time 8.0 day
LX-2 [4] = experiment: Downregulation of TGF-beta-1-induced alpha-SMA mRNA levels in serum starved human LX2 cells pretreated with TGF-beta-1 for 6 hrs followed by compound treatment for 24 hrs by SYBR green dye based qRT-PCR analysis; type: functional, cell-based; settings: dose <= 2.0 µM, DDE = dose-dependent effect
LX-2 [5] = experiment: Downregulation of TGF-beta-1-induced COL1A1 mRNA levels in serum starved human LX2 cells pretreated with TGF-beta-1 for 6 hrs followed by compound treatment for 24 hrs by SYBR green dye based qRT-PCR analysis; type: functional, cell-based; settings: dose <= 2.0 µM, DDE = dose-dependent effect
RAW264.7 [6] = experiment: Downregulation of LPS-stimulated TNF-alpha mRNA levels in mouse RAW264.7 cells pretreated with LPS for 2 hrs followed by compound treatment for 24 hrs by SYBR green dye based qRT-PCR analysis; type: functional, cell-based; settings: dose <= 2.0 µM, DDE = dose-dependent effect
RAW264.7 [7] = experiment: Downregulation of LPS-stimulated IL-6 mRNA levels in mouse RAW264.7 cells pretreated with LPS for 2 hrs followed by compound treatment for 24 hrs by SYBR green dye based qRT-PCR analysis; type: functional, cell-based; settings: dose <= 2.0 µM, DDE = dose-dependent effect
[8] = target: T2, 3-hydroxy-3-methylglutaryl-coenzyme A reductase (Cricetulus griseus, UniProt P00347); experiment: Induction of degradation of endogenous HMGCR in CHO-7 cells assessed as decrease in protein level incubated for 16 hrs in sterol-depleted medium by immunoblot analysis; type: cell-based
T2 sequence (P00347 whole entry): T1 sequence (whole entry)

CC(=O)n1ncc2c1C(C)(C)C1=CC[C@H]3[C@@H]4CC[C@H]([C@H](C)CCC(=O)N5CCOCC5)[C@@]4(C)CC[C@@H]3[C@@]1(C)C2
fold change (FC) [1]: 0.4 | fold change (FC) [2]: 0.1 | Activity (CHO-K1): Dde | Activity [3]: Dde | inhibition (CHO-7): Active | Activity (LX-2 [4]): Dde | Activity (LX-2 [5]): Dde | Activity (RAW264.7 [6]): Dde | Activity (RAW264.7 [7]): Dde | EC50 [8]: 130 nM
